Each structure is given as a SMILES string. Several values for one entry are separate records, joined by “and”; a condition that tells them apart may be missing. Equal values may be shown once.

What all share (assay): biochemical
Design in all cases: endogenous in cells; host or cells: K562 cell extract; species or system K562 (extract); replicate k of n = 2 (each experiment ID is one independent experiment; two experiment IDs per compound)
Holding throughout (conditions): read-out: KDapp

One test has as its target T1, TTK (Homo sapiens, UniProt P33981).
T1 sequence (P33981 1-857): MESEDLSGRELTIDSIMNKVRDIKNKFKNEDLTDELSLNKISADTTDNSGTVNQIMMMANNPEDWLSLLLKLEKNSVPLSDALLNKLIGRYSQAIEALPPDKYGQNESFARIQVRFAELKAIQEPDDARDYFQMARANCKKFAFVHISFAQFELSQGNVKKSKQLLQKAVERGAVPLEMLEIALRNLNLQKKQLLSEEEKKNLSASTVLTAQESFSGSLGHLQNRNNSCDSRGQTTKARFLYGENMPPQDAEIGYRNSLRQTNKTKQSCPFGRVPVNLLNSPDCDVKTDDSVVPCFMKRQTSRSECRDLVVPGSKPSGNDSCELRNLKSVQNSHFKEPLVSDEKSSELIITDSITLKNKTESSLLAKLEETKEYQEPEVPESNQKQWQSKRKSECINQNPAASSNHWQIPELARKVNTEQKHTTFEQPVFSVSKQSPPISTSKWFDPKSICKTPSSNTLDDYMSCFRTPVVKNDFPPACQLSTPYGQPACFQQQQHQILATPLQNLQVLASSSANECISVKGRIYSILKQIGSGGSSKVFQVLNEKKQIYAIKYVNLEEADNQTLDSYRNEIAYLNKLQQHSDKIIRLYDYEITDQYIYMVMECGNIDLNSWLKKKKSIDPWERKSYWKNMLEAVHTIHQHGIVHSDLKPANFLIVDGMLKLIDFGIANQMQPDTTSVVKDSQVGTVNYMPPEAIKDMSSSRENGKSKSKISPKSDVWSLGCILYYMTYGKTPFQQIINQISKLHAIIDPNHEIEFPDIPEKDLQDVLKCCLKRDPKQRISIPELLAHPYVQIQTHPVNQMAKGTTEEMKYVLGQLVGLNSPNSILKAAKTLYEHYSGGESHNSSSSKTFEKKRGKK

Another test addresses T2, PLK4 (Homo sapiens, UniProt O00444).
T2 sequence (O00444 1-970): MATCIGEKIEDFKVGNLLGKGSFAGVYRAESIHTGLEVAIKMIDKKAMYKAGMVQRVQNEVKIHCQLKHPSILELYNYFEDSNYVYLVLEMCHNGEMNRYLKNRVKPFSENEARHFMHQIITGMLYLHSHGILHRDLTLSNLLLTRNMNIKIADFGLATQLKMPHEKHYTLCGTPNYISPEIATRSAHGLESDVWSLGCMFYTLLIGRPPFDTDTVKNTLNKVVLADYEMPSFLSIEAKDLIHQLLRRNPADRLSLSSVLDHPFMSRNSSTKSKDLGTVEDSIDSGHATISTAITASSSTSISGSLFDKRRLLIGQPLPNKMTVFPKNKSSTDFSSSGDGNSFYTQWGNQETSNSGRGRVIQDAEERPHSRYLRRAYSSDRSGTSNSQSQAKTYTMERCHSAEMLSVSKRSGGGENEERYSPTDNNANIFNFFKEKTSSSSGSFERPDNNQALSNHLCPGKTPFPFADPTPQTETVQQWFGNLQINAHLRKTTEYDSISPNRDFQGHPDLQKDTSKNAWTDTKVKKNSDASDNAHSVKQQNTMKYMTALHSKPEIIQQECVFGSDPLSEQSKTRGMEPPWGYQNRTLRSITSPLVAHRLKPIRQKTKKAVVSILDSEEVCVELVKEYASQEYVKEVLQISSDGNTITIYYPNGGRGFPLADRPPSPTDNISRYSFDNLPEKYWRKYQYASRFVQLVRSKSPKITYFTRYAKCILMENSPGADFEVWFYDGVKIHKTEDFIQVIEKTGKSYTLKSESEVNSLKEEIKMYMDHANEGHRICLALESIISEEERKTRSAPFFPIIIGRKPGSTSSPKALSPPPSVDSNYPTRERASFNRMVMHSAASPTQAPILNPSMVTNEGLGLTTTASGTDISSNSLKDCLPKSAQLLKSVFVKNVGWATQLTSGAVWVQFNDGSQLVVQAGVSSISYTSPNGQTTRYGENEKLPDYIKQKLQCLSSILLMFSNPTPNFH

Another test has as its target T3, MAP3K7 (Homo sapiens, UniProt O43318).
T3 sequence (O43318 1-606): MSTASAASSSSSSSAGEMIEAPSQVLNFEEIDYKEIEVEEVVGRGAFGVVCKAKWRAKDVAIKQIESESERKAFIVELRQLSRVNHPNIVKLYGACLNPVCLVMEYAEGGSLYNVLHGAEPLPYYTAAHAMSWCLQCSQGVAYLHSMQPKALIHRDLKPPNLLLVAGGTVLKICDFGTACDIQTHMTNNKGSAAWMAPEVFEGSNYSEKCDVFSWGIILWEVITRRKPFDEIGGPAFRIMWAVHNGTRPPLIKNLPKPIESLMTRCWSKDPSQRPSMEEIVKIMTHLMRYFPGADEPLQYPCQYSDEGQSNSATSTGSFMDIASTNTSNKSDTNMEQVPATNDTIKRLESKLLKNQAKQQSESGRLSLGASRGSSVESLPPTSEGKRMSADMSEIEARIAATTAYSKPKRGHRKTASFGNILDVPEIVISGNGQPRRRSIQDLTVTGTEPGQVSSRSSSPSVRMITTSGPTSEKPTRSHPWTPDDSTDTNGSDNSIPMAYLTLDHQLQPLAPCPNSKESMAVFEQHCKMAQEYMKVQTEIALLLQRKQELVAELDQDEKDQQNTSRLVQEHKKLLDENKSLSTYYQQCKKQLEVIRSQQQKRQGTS

In the case of `CN1CCN(c2ccc(Nc3ncc(C#N)c(Nc4ccccc4C(N)=O)n3)cc2)CC1.Cl` [TCMDC-134116], the Kd on TTK is 439 nM and 357 nM; at PLK4, 53.9 nM and 69.2 nM; on MAP3K7 it was 1470 nM and 808 nM.

Values taken from article PMC4774911, “Biochemical Screening of Five Protein Kinases from Plasmodium falciparum against 14,000 Cell-Active Compounds” (PLoS ONE, 2016).
